{
  "source": "paper PMC3816002",
  "about": "(Biochimica et biophysica acta, 2013)",
  "target": "T1, CIITA (Homo sapiens, UniProt P33076, G420A/G425A/K426E)",
  "T1 sequence (P33076 1-1130 G420A/G425A/K426E)": "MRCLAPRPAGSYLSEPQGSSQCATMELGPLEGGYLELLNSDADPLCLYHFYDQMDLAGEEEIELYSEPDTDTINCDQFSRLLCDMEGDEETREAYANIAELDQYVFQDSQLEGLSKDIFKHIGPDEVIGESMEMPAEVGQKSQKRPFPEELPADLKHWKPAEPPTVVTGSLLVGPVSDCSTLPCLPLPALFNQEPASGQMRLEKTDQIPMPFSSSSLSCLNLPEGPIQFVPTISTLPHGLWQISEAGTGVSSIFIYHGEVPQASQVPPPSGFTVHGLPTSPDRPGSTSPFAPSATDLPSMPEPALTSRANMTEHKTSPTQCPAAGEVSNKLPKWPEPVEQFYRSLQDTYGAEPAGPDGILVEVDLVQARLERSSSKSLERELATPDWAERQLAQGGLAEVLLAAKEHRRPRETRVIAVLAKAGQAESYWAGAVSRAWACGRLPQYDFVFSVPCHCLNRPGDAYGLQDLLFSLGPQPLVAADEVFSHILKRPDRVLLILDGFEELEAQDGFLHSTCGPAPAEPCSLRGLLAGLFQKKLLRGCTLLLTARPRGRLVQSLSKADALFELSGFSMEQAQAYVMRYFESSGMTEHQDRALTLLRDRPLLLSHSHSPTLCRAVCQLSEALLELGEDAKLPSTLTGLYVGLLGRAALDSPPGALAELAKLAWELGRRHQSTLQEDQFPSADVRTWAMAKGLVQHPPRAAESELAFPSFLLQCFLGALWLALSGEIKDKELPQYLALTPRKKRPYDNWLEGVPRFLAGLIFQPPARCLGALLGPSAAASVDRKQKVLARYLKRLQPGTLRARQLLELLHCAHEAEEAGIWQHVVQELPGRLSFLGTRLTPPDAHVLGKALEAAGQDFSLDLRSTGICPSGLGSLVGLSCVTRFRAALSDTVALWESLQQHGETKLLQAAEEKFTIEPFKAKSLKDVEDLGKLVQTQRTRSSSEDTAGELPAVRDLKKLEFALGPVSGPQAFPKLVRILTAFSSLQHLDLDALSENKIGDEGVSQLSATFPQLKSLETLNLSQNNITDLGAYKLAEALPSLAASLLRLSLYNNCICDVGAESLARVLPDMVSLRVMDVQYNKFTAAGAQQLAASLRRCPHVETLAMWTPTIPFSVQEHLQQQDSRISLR",
  "assay": "[…] autophosphorylation kinase assay, SDS-PAGE, phosphorimager",
  "type": "biochemical",
  "conditions": "labelled compound; 5 mM MnCl2, 5 mM MgCl2, pH 7.5, 30 °C",
  "data": [
    {"smiles": "Nc1ncnc2c1ncn2[C@@H]1O[C@H](COP(=O)(O)OP(=O)(O)OP(=O)(O)O)[C@@H](O)[C@H]1O", "note": "[ATP]", "values": [
      {"measurement": "32P autophosphorylation kinase assay, SDS-PAGE, phosphorimager", "result": "No loss of kinase activity was detected in the putative ATP binding site mutant"}
    ]}
  ]
}
